Source: patent US20240043427A1 (Gilead Sciences, Inc., priority 2020, published 2024)
Values joined by “and” are separate entries in the source; they are usually repeats but may differ in a detail not shown here. Equal values may be shown once. Read-outs that look alike come from different tables or passages of the source.

Key:
[1] = biological target: T1, CD73 (Homo sapiens (Human), UniProt P21589); format: biochemical; conditions: 1 mM NaH2PO4 in enzyme buffer, CD73 0.3 nM, AMP 15 uM
[2] = biological target: T1, CD73; assay: MDA-MB-231 Cell Based CD73 Activity Assay (DMEM); conditions: MDA-MB-231-GFP cells, DMEM medium with 10% human plasma, 200 uM AMP
[3] = biological target: T1, CD73; assay: MDA-MB-231 Cell Based CD73 Activity Assay; conditions: MDA-MB-231-GFP cells, RPMI medium with 10% human plasma, 200 uM AMP
[4] = biological target: T1, CD73; assay: CD73 Biochemical IC50 Assay; conditions: CD73 0.3 nM, AMP 15 uM, 25 mM Tris pH 7.4, 5 mM MgCl2
Procedure: CD73 Biochemical IC50 Assay
Compound serial dilutions were pre-spotted into Thermo Nunc assay plate. 50 μL CD73 enzyme buffer (CD73 purchased from R&D system=0.6 nM, 25 mM Tris, pH 7.4, 5 mM MgCl2) was added into the assay plate and incubated for 15 mins. […] The samples were run using Rapid fire.

T1 sequence (P21589 27-574): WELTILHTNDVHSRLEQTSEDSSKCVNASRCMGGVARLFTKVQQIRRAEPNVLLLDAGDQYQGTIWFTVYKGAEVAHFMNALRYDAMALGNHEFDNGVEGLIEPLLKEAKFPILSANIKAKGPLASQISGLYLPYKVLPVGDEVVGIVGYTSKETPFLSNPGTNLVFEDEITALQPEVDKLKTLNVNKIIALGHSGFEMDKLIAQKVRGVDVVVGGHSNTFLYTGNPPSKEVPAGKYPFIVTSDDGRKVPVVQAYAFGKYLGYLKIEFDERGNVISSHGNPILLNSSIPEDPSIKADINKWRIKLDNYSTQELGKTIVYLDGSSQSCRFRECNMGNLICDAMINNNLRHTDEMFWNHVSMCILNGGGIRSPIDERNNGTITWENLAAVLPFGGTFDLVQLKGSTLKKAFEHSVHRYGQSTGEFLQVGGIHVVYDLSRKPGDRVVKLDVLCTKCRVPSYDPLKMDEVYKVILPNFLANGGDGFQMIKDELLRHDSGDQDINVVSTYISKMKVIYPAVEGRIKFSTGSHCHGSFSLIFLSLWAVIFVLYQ

| Compound | IC50 [1] | EC50 [2] | EC50 [3] | IC50 [4] |
| --- | --- | --- | --- | --- |
| O=c1[nH]cc(-c2cc(N3C[C@H](F)[C@@H](F)C3)c3nccn3n2)c(=O)[nH]1 (racemic) [Example 73, 5-[8-[(3S,4S)-3,4-difluoropyrrolidin-1-yl]imidazo[1,2-b]pyridazin-6-yl]-1H-pyrimidine-2,4-dione and 5-[8-[(3R,4R)-3,4-difluoropyrrolidin-1-yl]imidazo[1,2-b]pyridazin-6-yl]-1H-pyrimidine-2,4-dione] | 9.87 nM | 31.7 nM | 17.4 nM | 39.7 nM |
| O=c1[nH]cc(-c2cc([C@H]3C[C@@H]3c3ccc(F)cc3)c3nc(C4CC4)cn3n2)c(=O)[nH]1 (racemic) [Example 86, 5-[2-cyclopropyl-8-[(1S,2S)-2-(4-fluorophenyl)cyclopropyl]imidazo[1,2-b]pyridazin-6-yl]-1H-pyrimidine-2,4-dione and 5-[2-cyclopropyl-8-[(1R,2R)-2-(4-fluorophenyl)cyclopropyl]imidazo[1,2-b]pyridazin-6-yl]-1H-pyrimidine-2,4-dione] | 5.66 nM | 16.6 nM | 21.8 nM | 152 nM |
| O=c1[nH]cc(-c2cc([C@H]3C[C@@H]3c3ccc4c(c3)OC(F)(F)O4)c3nccn3n2)c(=O)[nH]1 (racemic) [Example 110, 5-(8-((1S,2S)-2-(2,2-difluorobenzo[d][1,3]dioxol-5-yl)cyclopropyl)imidazo[1,2-b]pyridazin-6-yl)pyrimidine-2,4(1H,3H)-dione and 5-(8-41R,2R)-2-(2,2-difluorobenzo[d][1,3]dioxol-5-yl)cyclopropyl)imidazo[1,2-b]pyridazin-6-yl)pyrimidine-2,4(1H,3H)-dione] | 2.96 nM | 28.7 nM | 7.5 nM | 31.4 nM |
| O=c1[nH]cc(-c2cc(N3CCC(c4ccc(F)cc4)C3)c3nccn3n2)c(=O)[nH]1 (stereo in doubt) [Example 67, 5-[8-[(3R)-3-(4-fluorophenyl)pyrrolidin-1-yl]imidazo[1,2-b]pyridazin-6-yl]-1H-pyrimidine-2,4-dione] | 4.83 nM | 30.3 nM | 14.3 nM | 30.1 nM |
| O=c1[nH]cc(-c2cc(N3CCCC3)c3nccn3n2)c(=O)[nH]1 [Example 9, 5-(8-pyrrolidin-1-ylimidazo[1,2-b]pyridazin-6-yl)-1H-pyrimidine-2,4-dione] | 19.4 nM | 58.8 nM | 29.1 nM | 106 nM |
| O=c1[nH]cc(-c2cc(C3CC3)c3nccn3n2)c(=O)[nH]1 [Example 22, 5-(8-cyclopropylimidazo[1,2-b]pyridazin-6-yl)pyrimidine-2,4(1H,3H)-dione] | 35.5 nM | 104 nM | 46.3 nM and 45.1 nM | 55.8 nM and 64.9 nM |
| O=c1[nH]cc(-c2cc(N3CC(C(F)(F)F)C3)c3nccn3n2)c(=O)[nH]1 [Example 62, 5-(8-(3-(trifluoromethyl)azetidin-1-yl)imidazo[1,2-b]pyridazin-6-yl)pyrimidine-2,4(1H,3H)-dione] | 8.47 nM | 32.2 nM | 25.1 nM | 27.2 nM |
| CC1(C)CN(c2cc(-c3c[nH]c(=O)[nH]c3=O)nn3ccnc23)C1 [Example 63, 5-(8-(3,3-dimethylazetidin-1-yl)imidazo[1,2-b]pyridazin-6-yl)pyrimidine-2,4(1H,3H)-dione] | 29.1 nM | 47.4 nM | 34.7 nM | 70.5 nM |
| O=c1[nH]cc(-c2cc(N3CCC(F)(F)CC3)c3nccn3n2)c(=O)[nH]1 [Example 70, 5-[8-(4,4-difluoro-1-piperidyl)imidazo[1,2-b]pyridazin-6-yl]-1H-pyrimidine-2,4-dione] | 134 nM | 285 nM | 240 nM | 221 nM |
| CC1(C)CCN(c2cc(-c3c[nH]c(=O)[nH]c3=O)nn3ccnc23)C1 [Example 72, 5-[8-(3,3-dimethylpyrrolidin-1-yl)imidazo[1,2-b]pyridazin-6-yl]-1H-pyrimidine-2,4-dione] | 6.97 nM | 25.9 nM | 12.4 nM | 26.5 nM |
| O=c1[nH]cc(-c2cc(N3CCC(F)(F)C3)c3nccn3n2)c(=O)[nH]1 [Example 79, 5-[8-(3,3-difluoropyrrolidin-1-yl)imidazo[1,2-b]pyridazin-6-yl]-1H-pyrimidine-2,4-dione] | 4.58 nM | 20.8 nM | 11.7 nM | 25.2 nM |
| CC1(C)CCN(c2cc(-c3c[nH]c(=O)[nH]c3=O)nc3ncnn23)C1 [Example 92, 5-(7-(3,3-dimethylpyrrolidin-1-yl)-[1,2,4]triazolo[1,5-a]pyrimidin-5-yl)pyrimidine-2,4(1H,3H)-dione] | 6.57 nM |  | 23.6 nM | 15.6 nM |
| O=c1[nH]cc(-c2cc(N3CCCC(F)(F)C3)c3nccn3n2)c(=O)[nH]1 [Example 93, 5-(8-(3,3-difluoropiperidin-1-yl)imidazo[1,2-b]pyridazin-6-yl)pyrimidine-2,4(1H,3H)-dione] | > 250 nM | 685 nM | 556 nM | 522 nM |
| O=c1[nH]cc(-c2cc(N3CC(F)(F)C(F)(F)C3)c3nccn3n2)c(=O)[nH]1 [Example 109, 5-(8-(3,3,4,4-tetrafluoropyrrolidin-1-yl)imidazo[1,2-b]pyridazin-6-yl)pyrimidine-2,4(1H,3H)-dione] | 2.97 nM |  | 13 nM | 44.5 nM |

Second part, the compound after the results:

| IC50 [1] | EC50 [2] | EC50 [3] | IC50 [4] | Compound |
| --- | --- | --- | --- | --- |
| 0.94 nM | 4.15 nM | 2.08 nM and 1.88 nM | 13.6 nM and 13 nM | O=c1[nH]cc(-c2cc([C@H]3C[C@@H]3c3ccccc3)c3nccn3n2)c(=O)[nH]1 (racemic) [Example 7, 5-(8-((1S,2S)-2-phenylcyclopropyl)imidazo[1,2-b]pyridazin-6-yl)pyrimidine-2,4-(1H,3H)-dione and 5-(8-((1R,2R)-2-phenylcyclopropyl)imidazo[1,2-b]pyridazin-6-yl)pyrimidine-2,4-(1H,3H)-dione] |
| 2.08 nM |  | 7.59 nM | 28.7 nM | O=c1[nH]cc(-c2cc([C@H]3C[C@@H]3c3ccc(C(F)(F)F)cc3)c3nccn3n2)c(=O)[nH]1 (racemic) [Example 42, 5-[8-[(1S,2S)-2-[4-(trifluoromethyl)phenyl]cyclopropyl]imidazo[1,2-b]pyridazin-6-yl]-1H-pyrimidine-2,4-dione and 5-[8-[(1R,2R)-2-[4-(trifluoromethyl)phenyl]cyclopropyl]imidazo[1,2-b]pyridazin-6-yl]-1H-pyrimidine-2,4-dione] |
| 1.14 nM |  | 2.69 nM | 20.1 nM | O=c1[nH]cc(-c2cc([C@H]3C[C@@H]3c3ccccn3)c3nccn3n2)c(=O)[nH]1 (racemic) [Example 52, 5-[8-[(1S,2S)-2-(2-pyridyl)cyclopropyl]imidazo[1,2-b]pyridazin-6-yl]-1H-pyrimidine-2,4-dione and 5-[8-[(1R,2R)-2-(2-pyridyl)cyclopropyl]imidazo[1,2-b]pyridazin-6-yl]-1H-pyrimidine-2,4-dione] |
| 1.52 nM |  | 5.16 nM | 20.7 nM | O=c1[nH]cc(-c2cc([C@H]3C[C@@H]3c3cccnc3)c3nccn3n2)c(=O)[nH]1 (racemic) [Example 53, 5-[8-[(1S,2S)-2-(3-pyridyl)cyclopropyl]imidazo[1,2-b]pyridazin-6-yl]-1H-pyrimidine-2,4-dione and 5-[8-[(1R,2R)-2-(3-pyridyl)cyclopropyl]imidazo[1,2-b]pyridazin-6-yl]-1H-pyrimidine-2,4-dione] |
| 1.98 nM |  | 3.4 nM | 17.7 nM | O=c1[nH]cc(-c2cc([C@H]3C[C@@H]3c3ccncc3)c3nccn3n2)c(=O)[nH]1 (racemic) [Example 54, 5-[8-[(1S,2S)-2-(4-pyridyl)cyclopropyl]imidazo[1,2-b]pyridazin-6-yl]-1H-pyrimidine-2,4-dione and 5-[8-[(1R,2R)-2-(4-pyridyl)cyclopropyl]imidazo[1,2-b]pyridazin-6-yl]-1H-pyrimidine-2,4-dione] |
| 1.34 nM | 17.7 nM | 6.08 nM | 43.3 nM | N#Cc1cc(F)cc([C@H]2C[C@@H]2c2cc(-c3c[nH]c(=O)[nH]c3=O)nn3ccnc23)c1 (racemic) [Example 85, 3-[(1S,2S)-2-[6-(2,4-dioxo-1H-pyrimidin-5-yl)imidazo[1,2-b]pyridazin-8-yl]cyclopropyl]-5-fluoro-benzonitrile and 3-[(1R,2R)-2-[6-(2,4-dioxo-1H-pyrimidin-5-yl)imidazo[1,2-b]pyridazin-8-yl]cyclopropyl]-5-fluoro-benzonitrile] |
| 2 nM | 17.7 nM | 7.23 nM | 16.4 nM | O=c1[nH]cc(-c2cc([C@H]3C[C@@H]3c3ccc(Cl)c(F)c3)c3nccn3n2)c(=O)[nH]1 (racemic) [Example 98, 5-(8-((1S,2S)-2-(4-chloro-3-fluorophenyl)cyclopropyl)imidazo[1,2-b]pyridazin-6-yl)pyrimidine-2,4(1H,3H)-dione and 5-(8-((1R,2R)-2-(4-chloro-3-fluorophenyl)cyclopropyl)imidazo[1,2-b]pyridazin-6-yl)pyrimidine-2,4(1H,3H)-dione] |
| 1.77 nM | 12.9 nM | 4.21 nM | 13.3 nM | N#Cc1ccc([C@H]2C[C@@H]2c2cc(-c3c[nH]c(=O)[nH]c3=O)nn3ccnc23)cc1F (racemic) [Example 115, 4-((1S,2S)-2-(6-(2,4-dioxo-1,2,3,4-tetrahydropyrimidin-5-yl)imidazo[1,2-b]pyridazin-8-yl)cyclopropyl)-2-fluorobenzonitrile] |
